Legend:
C. elegans [1] = test: Nematode trap plate (PASS) olfaction test, chemotaxis index to a volatile substance; assay type: in vivo, Caenorhabditis elegans
Method: (Method for Evaluating Test Result) On the basis of the number of nematodes caught in the fall-in cavity which number has been obtained in the above-described manner, a response of the nematodes is evaluated. In the olfaction test or gustation test for evaluating a response of the nematodes to a chemical substance or the like, it is possible to evaluate the response on the basis of, e.g., a chemotaxis index (it may sometimes be abbreviated as “C.I.”). The chemotaxis index, which is used to evaluate the taxis of the test subject to the chemical substance or the like, is defined by in the following manner. That is, the number of nematodes caught in a control fall-in cavity is subtracted from the number of nematodes caught in a fall-in cavity for the test subject so that a difference is yielded, and the difference is divided by the total number of nematodes caught in all the fall-in cavities. In a case where there exist two or more fall-in cavities for the test subject, the total number of nematodes caught in these fall-in cavities is considered as “the number of nematodes caught in the fall-in cavity for the test subject”. Similarly, in a case where there exist two or more control fall-in cavities, the total number of nematodes caught in these control fall-in cavities is considered as “the number of nematodes caught in the control fall-in cavity”. Specifically, the chemotaxis index (C.I.) can be obtained by the following formula, where Ni is the total number of nematodes caught in the fall-in cavity for the test subject and N2 is the total number of nematodes caught in the control fall-in cavity.
Chemotaxis index (C.I.)=(N1−N2)/(N1+N2).
In the Examples shown below, tests were conducted by using C. elegans as the nematodes, unless otherwise stated. In each of the Examples, a commercially-available circular plastic dish was used as the container of the nematode trap plate. The size of the plastic dish, the capacity (volume) of a solid medium mainly made of an agar, and the number of fall-in cavities to be formed were set as appropriate in consideration of the purpose of the test, the volume of a sample obtained, and the like. In each case, the fall-in cavities were formed in the shape of a cylinder having a diameter of approximately 5 mm. […] The following description will be made by using the names of the plates shown in Table 1 (plate A1, plate A2, plate B1, plate B2, plate B3, plate B4, and plate B5).
First, a plate A1 was produced that included (a) two fall-in cavities 2a formed in a left part of a solid medium so as to be arranged side by side along the outer periphery of the solid medium and (b) two fall-in cavities 2b formed in control positions in a right part of the solid medium in a similar manner to the fall-in cavities 2a. […]
Then, the response was evaluated. […]

C. elegans [2] = test: Conventional chemotaxis evaluation method on assay plate with sodium azide (Comparative Example 1); assay type: in vivo, Caenorhabditis elegans; details: Comparative Example 1, conventional method; undiluted solution and test solution with a large dilution factor; three tests
Method: As a comparative example, evaluation of a response of nematodes was conducted in accordance with a conventional chemotaxis evaluation method (e.g., Non-Patent Literature 1). […] Similarly to the test in Example 1, an undiluted solution of diacetyl and diluted solutions prepared by diluting diacetyl at five different concentrations were used as test solutions. One drop of the test solution was dripped on each of two positions (test solution spots) on a left half of a circle with a radius of 3 cm about the center of the assay plate. Meanwhile, the buffer solution serving as the control was dripped on each of positions (control spots) that were on a right half of the circle with a radius of 3 cm about the center of the assay plate and that were arranged point symmetrically. […] Based on the captured image of the entire assay plate, an example of which is shown in FIG. 11, the number of nematodes fixed under anesthesia was counted in each of test solution areas extending concentrically from the two test solution spots on the left part and control areas extending concentrically from the two control spots on the right part. […] The response of the nematodes was evaluated with use of the chemotaxis index (C.I.), which was used also in Example 1, assuming that the number of nematodes in the test solution areas was N1 and the number of nematodes in the control areas was N2. […]

[3] = tested on: hetero group H of free-living soil nematodes (collected at Takayama city, Gifu, Japan); test: Nematode trap plate olfaction test with soil nematodes other than C. elegans, group H; assay type: in vivo; details: Example 15, plate A1, 1 mM diluted solution, positive = attraction
Method: (§1) Example 15 was conducted for the purpose of studying applicability of the plate of the present invention to evaluation of a response of nematodes other than C. elegans. Specifically, the test was conducted to examine a response of a hetero group M of free-living soil nematodes (collected at Ogasawara village, Tokyo, Japan) and a hetero group H of free-living soil nematodes (collected at Takayama city, Gifu, Japan) with respect to a volatile substance. A plate A1 identical to that produced in Example 1 was produced. Left fall-in cavities 2a were filled with a test solution, whereas right fall-in cavities 2b were filled with a buffer solution as a control. The test solution used in Example 15 was a diluted solution (1 mM) of vanillin, which is a kind of volatile substance. […] Then, the plate was left at least for an hour under a light-shielded environment. […] The chemotaxis index (C.I.) was obtained in a similar manner to Example 1, and the response of the nematodes was evaluated. […] Note that the tests involving use of the nematode group M and the nematode group H were conducted independently.

[4] = tested on: hetero group M of free-living soil nematodes (collected at Ogasawara village, Tokyo, Japan); test: Nematode trap plate olfaction test with soil nematodes other than C. elegans, group M; assay type: in vivo; details: Example 15, plate A1, 1 mM diluted solution, negative = avoidance
Method: as §1

O=Cc1ccccc1 [benzaldehyde]
Chemotaxis index (C.I.) (C. elegans [1]; Example 3, plate B1, each of three dilutions from 10000-fold to 100000-fold of 9.8 M undiluted solution, mean of four tests, maximum 1.0): not less than 0.9

CC(=O)C(C)=O [diacetyl]
Chemotaxis index (C.I.) (C. elegans [2]): a positive value was obtained in one case, and a negative value was obtained in another case | Chemotaxis index (C.I.) (C. elegans [1]; Example 1, plate A1, four other dilution concentrations among six, all three tests, positive = attraction): positive values | Chemotaxis index (C.I.) (C. elegans [1]; Example 1, plate A1, two highest concentrations among six (undiluted 11.5 M to 100000-fold dilution), all three tests, negative = escaping): negative values | Chemotaxis index (C.I.) (C. elegans [1]; Example 2, plate A2 (solid medium volume twice that of A1), six concentrations, undiluted to 100000-fold, three tests): the same results as in Example 1

COc1cc(C=O)ccc1O [vanillin]
Chemotaxis index (C.I.) [3]: positive C.I. value | Chemotaxis index (C.I.) [4]: negative C.I. value

From patent US20220187274A1, “NEMATODE TRAP PLATE AND USE THEREFOR” (priority 2019, published 2022)
